Legend:
[1] = Cameleon intravesicular Ca^2+ assay, control vesicles; type: biochemical, S cerevisiae; details: ionomycin 20 μM
Procedure: In complementary measurements, vesicular Ca^2+ was monitored directly by coexpressing ORAI1 with the Ca^2+ sensor D3 cpV or D4 cpV53 fused to the α-mating factor secretion signal to target the sensor to the vesicles. Vesicles that had incorporated ORAI1 were isolated from sec6-4 yeast incubated at the restrictive temperature and were diluted into assay buffer.
S cerevisiae strain NY17 featuring the temperature-sensitive sec6-4 mutation was used for protein expression and purification of secretory vesicles as described (Nakamoto, R. K., et al., J Biol Chem 266, 7940-7949 (1991); Coury, L. A., et al., Methods Enzymol 306, 169-186 (1999)). Cells were grown to midlog phase at 25° C. in uracil-deficient synthetic complete medium containing glucose, which was subsequently exchanged for galactose to induce transgene expression over a period of 8 hours. The temperature was then switched to 37° C. for 3 hours to force intracellular accumulation of secretory vesicles. […] Myc-tagged ORAI1 was detected in Western blots using the murine anti-Myc monoclonal antibody 9E10.
Changes in intravesicular [Ca^2+] were monitored with the modified Ca^2+ sensors cameleon D3 cpV and D4 cpV53. […] Emission spectra were recorded from 450-560 nm with excitation set at 410 nm, with a 5-8 nm slitwidth for both excitation and emission, and corrected by subtracting the spectrum obtained with buffer alone. […]

[2] = Pichia membrane flotation assay, control membranes; type: binding, Pichia pastoris; details: membranes from yeast not expressing ORAI1
Procedure: A membrane flotation assay was used to evaluate binding of these recombinant STIM 1 proteins to ORAI1. For these experiments ORAI1 (65-301) was expressed, an N-terminally truncated ORAI1 protein that forms functional Ca^2+ channels in mammalian cells (Li, Z., et al., J Biol Chem 282, 29448-29456 (2007)), in the yeast Pichia pastoris. Microsomal membranes were prepared from P pastoris expressing ORAI1 (65-301), layered at the bottom of a discontinuous sucrose gradient, and centrifuged. After centrifugation, the recombinant ORAI 1 was recovered near the top of the gradient in the fraction visually identified as containing membranes (FIG. 2A), as expected for an integral membrane protein.
Microsomal membranes, prepared from yeast Pichia pastoris expressing human ORAI1 (65-301) with an N-terminal FLAG tag and the substitutions E106Q and N223A, were resuspended in 10 mM HEPES pH 7.4, 150 mM NaCl, 1 mM DTT, 10% glycerol, briefly sonicated, brought to 25 mM EDTA by addition of EDTA from a concentrated stock, layered over a 0.5 M sucrose cushion, and centrifuged at 149,000×g for 1 h at 4° C. in a Beckman airfuge. […] FLAG-tagged ORAI1 was detected using anti-FLAG M2 monoclonal antibody (Sigma) and His-tagged STIM1^CT fragments were detected using anti-His-Tag monoclonal antibody (27E8 clone, Cell Signaling Technology).

## C[C@H](CCC(=O)O)C[C@H](C)C[C@H](C)C(=O)/C=C(\O)[C@H](C)C[C@H](C)C/C=C/[C@@H](C)[C@@H](O)[C@@H](C)[C@@H](O)C[C@@H]1CC[C@@](C)([C@H]2CC[C@@](C)([C@@H](C)O)O2)O1 [ionomycin, reference compound]
[1]
  Ca^2+ release from control vesicles (cameleon): effective in releasing Ca^2+

## STIM1^CT: cytoplasmic region of STIM1, mouse residues 233-685, His-tagged recombinant protein expressed in E coli
[2]
  position in gradient with control membranes: remained at the bottom of the gradient
